Measured values taken from patent EP2465859A1, “8-Triazolylxanthine derivatives, processes for their production and their use as adenosine receptor antagonists” (Life & Brain GmbH, priority 2010, dated 2012).

Experiments:
Assay type in all cases: cell-based
[1] = test system: TNFα expression in ESdM cells; experiment: ELISA assay: TNFα expression in ESdM cells stimulated with LPS and NECA or adenosine; conditions: for IC50: 24 h, LPS-induced TNFα expression in the presence of NECA (100 nM NECA, 100 ng/ml LPS), read-out: EC50 (the source's name); for TNF alpha expression: 100 nM NECA, various antagonist concentrations; for functional character at human A2B adenosine receptors: conclusion from the ELISA functional experiment
Method: With the ELISA assay in Fig. 5 the effects of adenosine receptor antagonists were investigated. […] In the presence of the antagonists to be investigated, the influence on the TNFα expression was analyzed. The cytokine expression was determined in the ELISA.
The determined EC50 concentration amounted to 60 nM. ESdM cells were stimulated with 100 nM of NECA and 100 ng/ml of LPS, and the A2B antagonist 1a was added to the stimulated cells at various concentrations for 24 h. The supernatants of the cells were investigated for TNFα expression in an ELISA.
Example 53: ELISA Assay The ELISA assay was used to investigate the effects of adenosine antagonists. […] In the presence of the antagonists to be investigated, their influence on TNFα expression was analyzed. The cytokine expression was determined in the ELISA (Fig. 5).
To evaluate, whether ESdM cells can be stimulated by Adenosine 3 x 10^5 ESdM cells were seeded in 12 wells. The next day the cells have been stimulated with 1 µM Adenosine (Sigma-Aldrich) and different concentrations of LPS (10 ng/ml, 100 ng/ml and 500 ng/ml, Sigma-Aldrich). Supernatants were collected 24 hours later and were analysed for TNFα expression in an ELISA (EBioscience). As shown here (Fig. 6A), ESdM cells are sensitive for stimulation with 1 µM adenosine. Best results are achieved with a LPS concentration of 100 ng/ml, whereas 500 ng/ml of LPS provide […] detectable TNFα values.
To examine, if ESdM cells can also be stimulated with the synthetic adenosine receptor agonist NECA, ESdM cells were seeded in 12 wells in the same concentration as mentioned before. These cells were treated with different concentrations of NECA (1 µM and 100 nM) and 100 ng/ml LPS. The next day supernatants were collected and analysed for TNFα expression.
To analyse the effect of the A2B antagonist 1a, 3 x 10^5 ESdM cells were seeded in 12 wells. The next day cells were stimulated with 100 nM NECA, 100 ng/ml LPS and various concentrations (10 pM-10 nM) of A2B-receptor antagonist 1a Supernatants of the cells were investigated for TNFα expression in an ELISA.

[2] = biological target: T1, human A2B receptor (Homo sapiens, UniProt P29275); experiment: cAMP assay in HEK cells recombinantly expressing the human A2B receptor
T1 construct: expressed in transfected cells; host or cells: HEK cells
T1 sequence (P29275 1-332): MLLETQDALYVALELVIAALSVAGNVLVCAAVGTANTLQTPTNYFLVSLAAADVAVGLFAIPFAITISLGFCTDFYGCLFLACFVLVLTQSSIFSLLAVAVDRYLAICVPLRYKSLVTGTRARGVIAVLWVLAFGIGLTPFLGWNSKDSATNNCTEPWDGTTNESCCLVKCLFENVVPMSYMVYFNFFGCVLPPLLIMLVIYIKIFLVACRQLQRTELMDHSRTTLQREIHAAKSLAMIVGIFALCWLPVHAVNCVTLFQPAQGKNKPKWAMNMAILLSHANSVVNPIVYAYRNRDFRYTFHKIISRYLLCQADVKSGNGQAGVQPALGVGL
Method: Example 52: cAMP assay The preparation of cAMP binding protein was carried out as previously described by Nordstedt and Fredholm (Anal. Biochem. 1990, 189, 231-234). 5'-(N-Ethylcarboxamido)adenosine (NECA) was obtained from Sigma. For cAMP experiments HEK cells, expressed the human recombinant A2B receptor were removed from a confluent 175 cm^2 flask, transferred into a falcon tube and spun down at 200 g, 4 °C for 5 min. After removal of the supernatant, the cell pellet was resuspended in Hank's buffered saline solution (HBSS, pH 7.4). 200 µl of the cell solution (∼ 200.000 cells per well) with 2 U/ml ADA was transferred into each well of a 24-well plate. After an incubation time of 1.5 h at 37 °C, 5 % CO2, 25 µL of the phosphodiesterase (PDE) inhibitor Ro-20-1724 (40 µM f.c.), dissolved in 100 % HBSS-puffer was added to each well and incubated for 10 min at 37 °C. […] After 10 min incubation time 12.5 µl of agonist (NECA) dissolved in the same buffer as well, was added and incubated for 15 min at 37 °C. NECA was incubated in concentrations of 10 µM and 1 µM alone as an control experiment. […] Well plates were put on ice and each well was subsequently homogenised by pipetting 6-7 times up and down. Competition binding experiments were performed in a final volume of 120 µl containing 50 µl of cell lysates, 30 µl of [^3H]cAMP (f.c. 3 nM) in lysis buffer (4 mM EDTA, 0.01 % trition X-100) and 40 µl of cAMP binding protein in the same buffer (50 µg protein per vial). Total binding was determined in the absence of cold cAMP and nonspecific binding was determined in the absence of cold cAMP and without binding protein. For a cAMP standard curve 50 µl of known cAMP concentration was put instead of 50 µl cell lysate. […] Then, filters were transferred to vials, incubated for 9 h with 2.5 mL of scintillation cocktail (Beckmann Coulter), and counted in a liquid scintillation counter (Tricarb 2700TR) with a counting efficiency of ∼ 54%.

[3] = biological target: T2, human adenosine A2B receptor (Homo sapiens, UniProt P29275); experiment: cAMP assay in CHO cells recombinantly expressing the human adenosine A2B receptor (NECA dose-response curve shift); conditions: for NECA-induced increase in cAMP formation / mode of antagonism (NECA curve shifted to the right): single antagonist concentration, ~5-fold of the Ki value
T2 construct: expressed in transfected cells; host or cells: CHO cells
T2 sequence (P29275 1-332): T1 sequence (P29275 1-332)
Method: Dose-response curves for the agonist NECA were determined in the absence and in the presence of a single concentration of the new antagonists 1d and 1f, using a ∼ 5-fold concentration of the Ki-values.

Structure (SMILES)	IC50 ([1]; ESdM cells) [µM]	TNF alpha expression ([1]; ESdM cells, 100 ng/ml LPS)	functional character at human A2B adenosine receptors [1]	also measured
CCn1c(=O)c2[nH]c(-c3cn(Cc4cccc(C(F)(F)F)c4)nn3)nc2n(CC)c1=O [1b, 1,3-Diethyl-8-(1-(3-(trifluoromethyl)benzyl)-1H-1,2,3-triazol-4-yl)-1H-purine-2,6(3H,7H)-dione]	1.09	dose dependent decrease	confirmed as antagonists	
Nc1ncnc2c1ncn2[C@@H]1O[C@H](CO)[C@@H](O)[C@H]1O [adenosine]				stimulation of TNFα expression in ESdM cells following LPS stimulation ([1]; 1 µM adenosine, LPS 10, 100 and 500 ng/ml, 24 hours): sensitive
Cn1c(=O)c2[nH]c(-c3cn(Cc4cccc(C(F)(F)F)c4)nn3)nc2n(C)c1=O [1a, 1,3-Dimethyl-8-(1-(3-(trifluoromethyl)benzyl)-1H-1,2,3-triazol-4-yl)-1H-purine-2,6(3H,7H)-dione]	2.6	dose-dependent decrease	confirmed as antagonists	EC50 ([1]; ESdM cells, 100 nM NECA and 100 ng/ml LPS, antagonist for 24 h, TNFα in supernatant (Fig. 7A), read-out: EC50 concentration): 0.06 µM; NECA-induced increase in cAMP formation ([2]; NECA 10 µM and 1 µM, antagonist 5 µM): inhibited; effect on cAMP levels of the compound itself ([2]; compound alone): no effect
CCCn1c(=O)[nH]c2nc(-c3cn(Cc4cccc(C(F)(F)F)c4)nn3)[nH]c2c1=O [1d, 1-Propyl-8-(1-(3-(trifluoromethyl)benzyl)-1H-1,2,3-triazol-4-yl)-1H-purine-2,6(3H,7H)-dione]	1.11	dose dependent decrease	confirmed as antagonists	NECA-induced increase in cAMP formation [3]: inhibited; mode of antagonism (NECA curve shifted to the right) [3]: competitive antagonism
CCNC(=O)[C@H]1O[C@@H](n2cnc3c(N)ncnc32)[C@H](O)[C@@H]1O [NECA, 5'-(N-Ethylcarboxamido)adenosine, reference compound]				cAMP formation ([3]; agonist dose-response curve): concentration-dependent increase; stimulation of TNFα expression in ESdM cells following LPS stimulation ([1]; 1 µM and 100 nM NECA, 100 ng/ml LPS): sensitive; cAMP formation ([2]; agonist, 10 µM and 1 µM): concentration-dependent increase
Cn1c(=O)n(CC2CC2)c(=O)c2[nH]c(-c3cn(Cc4cccc(C(F)(F)F)c4)nn3)nc21 [1g, 1-(Cyclopropylmethyl)-3-methyl-8-(1-(3-(trifluoromethyl)benzyl)-1H-1,2,3-triazol-4-yl)-1H-purine-2,6(3H,7H)-dione]	2.32	dose dependent decrease	confirmed as antagonists	
C#CCn1c(=O)c2[nH]c(-c3cn(Cc4cccc(C(F)(F)F)c4)nn3)nc2n(C)c1=O [1f, 3-Methyl-1-(prop-2-ynyl)-8-(1-(3-(trifluoromethyl)-benzyl)-1H-1,2,3-triazol-4-yl)-1H-purine-2,6(3H,7H)-dione]	1.36	dose dependent decrease	confirmed as antagonists	NECA-induced increase in cAMP formation [3]: inhibited; mode of antagonism (NECA curve shifted to the right) [3]: competitive antagonism
